The values that follow come from patent US6541503B2, “Substituted oxindole derivatives as protein tyrosine kinase and as protein serine/threonine kinase inhibitors” (SmithKline Beecham Corporation, priority 1997, dated 2003).

Where two headings read alike, the source gives them in different places.

Test [1] concerns human diploid fibroblasts (HDF-3). Nature of the test: G1-S progression assay (BrdU incorporation). Format: cell-based. As for the experimental part: This assay is designed to determine the ability of compounds to inhibit progression of cells from G1 into S-phase. […] The protocol is as follows:
(1) Grow human diploid fibroblasts (HDF-3) in 100 mm tissue culture dish to confluency. (2) Plate 6-7×10^3 cells/well in a 96 well plate in 100 μl of DMEM. (3) After 16-17 h add various dilutions of test compounds (0.045-100 μM). Dilute compound in DMEM containing DMSO and add 100 μl to each well so that the DMSO conc. is 0.6-0.8% in 200 μl final volume. (4) Two h after addition of compound, add 20 ul of 100 μM BrdU (final conc. 10 μM) Make 100 μM solution in DMEM from 10 mM stock solution. (5) After 4 h, add 200 μl PBS to each well and remove the contents of the wells by inverting the plate and soaking on to the paper towel. Repeat the washing step three times, with 400 ul PBS each time. (6) Fix the cells and denature the DNA by adding 200 μl fixation/denaturation solution to each well for 30-40 min. (7) Remove the fixation/denaturation solution by tapping the plate on the paper towel and add 75 ul of anti BrdU peroxidase antibody to each well. (dilute the antibody to 0.1 U/mL from 15 U/mL stock in PBS containing 1% BSA, Fraction V). Incubate the plate O/N at 4° C. (8) Remove the antibody solution and wash wells four times with 400 μl of PBS. Let the wash solution stay for 3-4 min during each wash. (9) Drain the wells and add 100 μl of chemiluminiscence Elisa reagent (Prepare the reagent 15-20 min before use to bring it to rt by mixing 100 parts of reagent A with 1 part of reagent B). (10) Read the plate in a luminometer. Take 2-3 readings within 6-7 min. Perform the following controls:
Deoxybromouridine (BrdU), anti BrdU peroxidase antibodies, fixation/denaturation solution, chemiluminiscence reagent and BSA Fraction V, were obtained from Boehringer Mannheim. The 96-well white plate with clear bottom were purchased from Corning Costar Corporation. Dulbecco's Modified Eagle Medium containing high glucose, L-glutamine and pyridoxine HCl was obtained from GIBCO BRL.
For orientation: Uptake of a labelled nucleoside into DNA is a usual measure of proliferation.

Test [2] concerns the target CDK2 (Homo sapiens, UniProt P24941). Nature of the test: Cyclin dependent protein kinase substrate phosphorylation assay, CDK2. Format: biochemical.
Method: CDK1 and CDK2 were both expressed utilizing a baculovirus expression system and were partially purified to comprise 20-80% of total protein, with no detectable competing reactions present. […] Reactions were terminated with 0.2-2 volumes of either 20% acetic acid or 50-100 mM EDTA buffered to pH 7 (substrate consumption<20%). The buffer employed in enzyme assays was either 30 mM HEPES 7.4 containing 0.15 M NaCl and 5% DMSO, the buffer 50 mM MOPS 7.0 containing 0.15 M NaCl and 5% DMSO, or the buffer 100 mM HEPES pH 7.5 containing 0.1 mg /mL BSA and 5% DMSO. Inhibitors were diluted in 100% DMSO prior to addition into the assay. Detection of peptide phosphorylation was accomplished by scintillation counting following either collection of peptide onto phosphocellulose filters (for reactions stopped with acetic acid), collection of peptide in wells of 96 well plates coated with Streptavidin (Pierce) (reactions were stopped with EDTA), or addition of Avidin coated Scintillant impregnated beads (Scintillation Proximity Assays from Amersham, reactions were stopped with EDTA).
The test system of test [3] is HDF normal diploid fibroblast cells. As to the kind of experiment: FACS assay (cell death by flow cytometry), HDF. Format: cell-based, human. As to conditions: Homo sapiens, Fibroblast, 72 h, read-out: FACS HDF IC50. As for the experimental part:
(§1) These assays allow determination of both cell death and changes in cell cycle profile in cells following treatment of the compound. The assay is performend as follows:
(§2) 1. Cells are incubated in DMEM to which 10% FCS has been added in a humidified incubator at 37° C. and 5% by volume of CO2 in air. The cells are innoculated in 6-well plates at a density of 0.5-5×10^5 cells per well.
(§3) 2. The test compound is added in serial dilutions 24-36 h after plating in 0.5% DMSO. The plates are then incubated a further 72 h in the presence of the compound. During this time, cells in control cultures undergo at least three cell divisions.
(§4) 3. After incubation, the media is collected and cells are harvested by trypsinization. The cells and media are pooled and pelleted by centrifugation.
(§5) 4. The cell pellet is fixed in a final volume of 3 mL of 50% ice cold MeOH and incubated for a minimum of 30 min at −20° C.
(§6) 5. The cells are pelleted by centrifugation and resuspended in 0.5 mL PBS containing 1%FCS, […] Propidium Iodide (PI) and 5 mg/mL RNase A and incubated 30 min at 37° C. in the dark.
(§7) 6. The samples are analysed by flow cytometry using the relative incorporation of PI as a measure of DNA content of each cell. The % Dead cells is recorded as % of events with less than 2N DNA.
(§8) HDF are normal diploid fibroblast cells. RKO are colon adenocarcinoma cells and MES/SA are […].
In general terms: In flow cytometry, cells or beads pass a laser one at a time.

Test [4] shares this test system. Nature of the test: MTT assay, HDF. Format: cell-based, human. As to conditions: Homo sapiens, Fibroblast, 72 h, read-out: MTT HDF IC50. As for the experimental part: Compounds are tested for their ability to inhibit cell proliferation and cell viability. The metabolic conversion of 3-(4,5-dimethylthiazol-2-yl)-2,5-diphenyltetrazolium bromide (MTT, Sigma #M2128) to a reduced form is a commonly used measure of cellular viability. Following is the procedure:
Cells are maintained in 75 cm^2 tissue culture flasks until ready for use. The cells are grown and plated for the assay in Dulbecco's modified Eagle's media (DMEM) containing 10% fetal bovine serum. For example, the following cell lines can be used: a) human foreskin fibroblasts (HFF); b) HT29 (human colon carcinoma cell line); c)MDA-MB-468 (human breast carcinoma cell line); d) RKO (human colon adenocarcinoma cell line); e) SW620 (human colon carcinoma cell line); f) A549 (human lung carcinoma cell line); and g) MIA PACA (human pancreatic carcinoma cell line). Cells are maintained at 37° C. in 10% CO2, 90% humidified air. Cells are plated in 96-well tissue culture plates at the densities listed below. […]
Cells are returned to incubator and allowed to proliferate in the presence of compound for 72 h before addition of MTT. […] Quantitation of metabolic reduction of MTT in each plate is performed by reading optical density at 570 nm wavelength on a Molecular Devices UVmax microplate reader. Growth inhibition curves and 50% inhibitory concentrations are determined using Microsoft Excel. […]
Background: Tetrazolium dyes change colour on reduction, which living cells bring about.

The test system of test [5] is MES/SA ovarian carcinoma cells. As to the kind of experiment: FACS assay (cell death by flow cytometry), MES/SA. Format: cell-based. As to conditions: Homo sapiens, MES-SA, 72 h, read-out: FACS MES/SA IC50. As for the experimental part: as §1, §2, §3, §4, §5, §6, §7, §8
Where [6] appears, read: Homo sapiens, Fibroblast, read-out: G1/S Chkpt IC50.
Setting [7] is: Homo sapiens, Fibroblast; read-out: G1/S Chkpt IC50.

Turning to `CNS(=O)(=O)Cc1ccc(NN=C2C(=O)Nc3ccc4ncccc4c32)cc1` [Example 68, N-Methyl-C-{4-[N′-(2-oxo-2,3-dihydro-pyrrolo[3,2-f]quinolin-1-ylidene)-hydrazino]-phenyl}-methanesulfonamide], the IC50 in test [1] (setting [6]) is 1100 to 5000 nM; in test [2], 1 to 10 nM.
Turning to `O=C1Nc2ccc3ncsc3c2C1=CNc1ccc(S(=O)(=O)Nc2ccccn2)cc1` [Example 72, 4-[(7-Oxo-6,7-dihydro-1-thia-3,6-diaza-as-indacen-8-ylidenemethyl)-amino]-N-pyridin-2-yl-benzenesulfonamide], the IC50 is greater than 5000 nM in test [3], 1100 to 5000 nM in test [1] (setting [6]), greater than 5000 nM in test [4] and greater than 5000 nM in test [5].
Turning to `CS(=O)(=O)Cc1ccc(NC=C2C(=O)Nc3ccc4ncsc4c32)cc1` [Example 76, 8-(4-Methylsulfonylmethyl-phenylamino-methylene)-6,8-dihydro-1-thia-3,6-diaza-as-indacen-7-one], the IC50 in test [1] (setting [7]) lay in the range of 1100 to 5000 nM; in test [2], 11 to 50 nM; in test [5] (50% cell death), 1100 to 5000 nM.
On to `CC(C)(CO)CNS(=O)(=O)c1ccc(NC=C2C(=O)Nc3ccc4ncsc4c32)cc1` [Example 77, N-(3-Hydroxy-2,2-dimethyl-propyl)-4-[(7-oxo-6,7-dihydro-1-thia-3,6-diaza-as-indacen-8-ylidenemethyl)-amino]-benzenesulfonamide], for which the values for the IC50 in test [1] (setting [7]) and in test [5] (50% cell death) were 1100 to 5000 nM and 600 to 1000 nM, respectively.
On the same counts, the results for `CNS(=O)(=O)Cc1ccc(NN=C2C(=O)Nc3cc(C)c(O)c(C)c32)cc1` [Example 99] are 1100 to 5000 nM and greater than 5000 nM.
